Data on one compound can be found in US6492395B1, “Topical formulation of alkyl-, phenyl-pyridone” (Mepha AG, priority 2001, dated 2002).

The data set is described as follows: Stability test, 6 months storage under standard storage conditions. In kind it is physicochemical. As to the method: Stability testing was carried out as above.

As to `Cc1ccc(=O)n(-c2ccccc2)c1` [5-methyl-1-phenyl-2-(1H)-pyridone], the “effect on physical stability of emulsions and other colloidal systems” value is listed as “emulsion destabiliser”.
